From ChEMBL document CHEMBL1201862, “PubChem BioAssay data set” (2004)
Activity calls are given as the source filed them.

How the values were obtained:
[1] = NIH-3T3 fibroblast cytotoxicity, dose response, cytotoxicity control, cell-based, fluorescence, Alamar Blue, secondary assay (AID 2327); format: functional;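 further: NIH-3T3 mouse fibroblasts cultured with fluconazole at 8 µg/mL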
[2] = biological target: Beta-galactosidase (Escherichia coli, UniProt Q8VNN2); experiment: PubChem AID 485352; format: functional
Chain of Beta-galactosidase (Q8VNN2 whole entry): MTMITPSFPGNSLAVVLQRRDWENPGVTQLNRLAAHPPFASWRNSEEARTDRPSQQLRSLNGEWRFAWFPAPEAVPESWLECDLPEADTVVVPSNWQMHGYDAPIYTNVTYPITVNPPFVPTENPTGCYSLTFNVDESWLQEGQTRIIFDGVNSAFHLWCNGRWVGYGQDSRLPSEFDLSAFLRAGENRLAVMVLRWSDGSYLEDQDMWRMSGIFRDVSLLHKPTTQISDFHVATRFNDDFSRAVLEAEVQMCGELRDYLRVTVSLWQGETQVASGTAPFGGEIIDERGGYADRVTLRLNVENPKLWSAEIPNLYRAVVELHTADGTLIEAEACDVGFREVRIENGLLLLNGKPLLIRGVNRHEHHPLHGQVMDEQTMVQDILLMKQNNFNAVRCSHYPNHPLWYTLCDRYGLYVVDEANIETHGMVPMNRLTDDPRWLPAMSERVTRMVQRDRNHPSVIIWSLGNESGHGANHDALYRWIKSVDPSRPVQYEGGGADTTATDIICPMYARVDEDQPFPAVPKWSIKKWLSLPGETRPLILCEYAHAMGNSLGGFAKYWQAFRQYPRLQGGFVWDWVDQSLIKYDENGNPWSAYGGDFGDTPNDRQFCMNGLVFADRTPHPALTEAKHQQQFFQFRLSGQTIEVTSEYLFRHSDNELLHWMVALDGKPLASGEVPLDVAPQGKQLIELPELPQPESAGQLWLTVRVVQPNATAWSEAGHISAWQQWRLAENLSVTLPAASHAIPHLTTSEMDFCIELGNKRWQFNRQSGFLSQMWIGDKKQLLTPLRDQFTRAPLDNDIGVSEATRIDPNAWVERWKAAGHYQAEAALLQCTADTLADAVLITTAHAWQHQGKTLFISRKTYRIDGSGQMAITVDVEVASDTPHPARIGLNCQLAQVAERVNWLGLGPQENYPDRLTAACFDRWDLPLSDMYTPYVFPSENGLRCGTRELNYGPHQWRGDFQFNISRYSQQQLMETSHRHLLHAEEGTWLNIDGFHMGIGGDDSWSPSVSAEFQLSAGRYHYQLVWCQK

[3] = C. albicans growth with fluconazole, confirmation, fluorescence, retest (AID 2467); format: functional, cell-based
[4] = inhibitors of intracellular T. cruzi replication, confirmation, NIH3T3 host cells, beta-gal luminescence (AID 2044); format: functional, cell-based;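 further: intracellular parasites grown in NIH/3T3 mouse fibroblasts as host cells; luminescent beta-galactosidase reporter signal from transgenic T. cruzi replicating inside host cells; inhibitors lower the luminescence signal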
[5] = biological target: T1, Type-1 angiotensin II receptor (Homo sapiens, UniProt P30556); experiment: AT1 receptor antagonists, dose response, selectivity assay for APJ receptor antagonist project, cell-based, uHTS hits (AID 463214); format: functional;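 further: antagonist potency against angiotensin II stimulated AT1 response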
T1 sequence (P30556 whole entry): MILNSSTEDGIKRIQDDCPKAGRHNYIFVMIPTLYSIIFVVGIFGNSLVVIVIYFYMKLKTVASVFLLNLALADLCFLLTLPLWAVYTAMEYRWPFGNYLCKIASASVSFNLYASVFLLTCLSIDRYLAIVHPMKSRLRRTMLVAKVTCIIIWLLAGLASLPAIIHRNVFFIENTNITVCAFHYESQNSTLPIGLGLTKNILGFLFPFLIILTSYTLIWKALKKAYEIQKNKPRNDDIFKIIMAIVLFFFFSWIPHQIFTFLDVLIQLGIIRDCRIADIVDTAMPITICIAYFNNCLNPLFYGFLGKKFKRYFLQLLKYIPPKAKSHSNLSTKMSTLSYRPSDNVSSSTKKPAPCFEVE

[6] = cytotoxicity toward NIH3T3 fibroblasts, dose response, counter-screen, cell-based, ATP luminescence, mouse fibroblasts (AID 2010); format: functional;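 further: cells exposed to compound for about 90 hours before reading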
[7] = biological target: T2, Melanocortin receptor 4 (Homo sapiens, UniProt P32245); experiment: MC4R antagonist potency on cAMP, dose response, cell-based, TR-FRET, biased antagonists (AID 602298); format: functional;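 further: antagonist potency against agonist-stimulated cAMP production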
T2 sequence (P32245 whole entry): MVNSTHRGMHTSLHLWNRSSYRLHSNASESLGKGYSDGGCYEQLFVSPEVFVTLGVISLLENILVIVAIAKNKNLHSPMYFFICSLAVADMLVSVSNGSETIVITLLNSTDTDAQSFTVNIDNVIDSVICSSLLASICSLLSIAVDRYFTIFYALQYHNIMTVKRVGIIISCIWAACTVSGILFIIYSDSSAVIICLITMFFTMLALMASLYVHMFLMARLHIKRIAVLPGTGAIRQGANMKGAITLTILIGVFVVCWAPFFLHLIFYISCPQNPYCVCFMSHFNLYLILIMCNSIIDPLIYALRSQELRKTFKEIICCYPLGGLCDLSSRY

[8] = nonselective inhibitors of cellular cAMP signaling, dose response, counter-screen for MC4R biased antagonist project, cell-based, TR-FRET cAMP detection (AID 602305); format: functional;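 further: U2OS cells stimulated with forskolin near its EC80 as the cAMP inducer; potency is for inhibition of forskolin-stimulated cAMP signaling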
[9] = tested on: HEK293; experiment: cells; format: functional, cell-based; settings: Homo sapiens
[10] = biological target: T3, Nuclear receptor subfamily 0 group B member 1 (Homo sapiens, UniProt P51843); experiment: Luminescence-based cell-based high throughput dose response assay for inhibitors of the orphan nuclear receptor subfamily 0, group B, member 1 (DAX1; NR0B1). [Related pubchem assays (depositor defined):AID504766, AID504790]; format: functional
T3 sequence (P51843 whole entry): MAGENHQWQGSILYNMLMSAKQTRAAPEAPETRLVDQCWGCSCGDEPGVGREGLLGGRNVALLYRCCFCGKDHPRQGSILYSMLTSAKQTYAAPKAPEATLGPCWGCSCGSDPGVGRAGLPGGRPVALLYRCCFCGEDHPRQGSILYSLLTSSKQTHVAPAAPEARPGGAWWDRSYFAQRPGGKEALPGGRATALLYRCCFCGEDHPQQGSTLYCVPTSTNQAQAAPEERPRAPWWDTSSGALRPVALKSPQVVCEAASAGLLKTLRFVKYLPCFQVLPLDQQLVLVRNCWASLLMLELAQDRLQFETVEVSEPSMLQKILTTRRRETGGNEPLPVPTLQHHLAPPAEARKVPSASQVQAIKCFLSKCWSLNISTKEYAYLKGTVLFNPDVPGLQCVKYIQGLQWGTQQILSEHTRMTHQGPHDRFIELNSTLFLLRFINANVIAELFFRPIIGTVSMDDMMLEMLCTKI

[11] = HEp-2 cell cytotoxicity, dose response, cytotoxicity control for RSV inhibitor project, HTS (AID 2410); format: functional; settings: human respiratory syncytial virus
[12] = Luminescence Cell-Based Dose Response HTS to Identify Inhibitors of 5'UTR Stem-Loop Driven Prion Protein mRNA Translation in H4 Neuroglioblastoma Cells. [Related pubchem assays: 1827 (Project Summary), 1813 (Primary HTS)]; format: functional
[13] = inhibitors of SNCA 5'UTR-driven reporter translation, confirmation, H4 neuroglioma cells, luminescence (AID 1988); format: functional, cell-based
[14] = microbe, parasite or virus in culture; format: functional; settings: Mycobacterium tuberculosis
[15] = growth suppression of PTEN-null colon cells, dose response, cell-based, HCT116 PTEN knockout (AID 1047); format: functional;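 further: HCT116 colon tumor cells with PTEN knocked out; cells exposed to compound for 60 hours before readout; potency for loss of cell viability measured by luminescence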
[16] = growth suppression of beta-catenin-knockout colon cells, dose response, cell-based, HCT116, human colon tumor (AID 1045); format: functional;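 further: HCT116 colon tumor cells with beta catenin knocked out; cells exposed to compound for 60 hours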
[17] = biological target: T4, Ubiquitin-conjugating enzyme E2 N (Homo sapiens, UniProt P61088); format: functional;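 further: Dose-response confirmation in a TR-FRET assay detecting UBC13-driven polyubiquitin chain formation, inhibition measured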
T4 sequence (P61088 whole entry): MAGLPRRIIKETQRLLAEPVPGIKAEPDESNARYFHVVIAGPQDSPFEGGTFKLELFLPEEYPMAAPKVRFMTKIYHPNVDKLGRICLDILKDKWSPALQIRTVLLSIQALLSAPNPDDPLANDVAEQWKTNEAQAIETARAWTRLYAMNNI

[18] = biological target: T2, Melanocortin receptor 4; format: functional, cell-based
[19] = biological target: T5, Sentrin-specific protease 8 (Homo sapiens, UniProt Q96LD8); experiment: SENP8 protease inhibitors, SAR follow-up, biochemical, luminescence (AID 504501); format: functional
T5 sequence (Q96LD8 whole entry): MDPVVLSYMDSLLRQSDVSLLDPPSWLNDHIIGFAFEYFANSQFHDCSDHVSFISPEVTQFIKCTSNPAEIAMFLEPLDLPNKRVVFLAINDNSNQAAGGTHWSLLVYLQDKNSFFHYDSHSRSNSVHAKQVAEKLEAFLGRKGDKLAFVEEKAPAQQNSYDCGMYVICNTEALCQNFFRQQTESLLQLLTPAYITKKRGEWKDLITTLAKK

[20] = biological target: T6, Caspase-3 (Homo sapiens, UniProt P42574); experiment: SAR Analysis of small molecule inhibitors of Sentrin-specific proteases (SENPs) using a Caspase-3 Selectivity assay. [Related pubchem assays (depositor defined):AID2540, AID2599, AID434973, AID489001]; format: functional
T6 sequence (P42574 whole entry): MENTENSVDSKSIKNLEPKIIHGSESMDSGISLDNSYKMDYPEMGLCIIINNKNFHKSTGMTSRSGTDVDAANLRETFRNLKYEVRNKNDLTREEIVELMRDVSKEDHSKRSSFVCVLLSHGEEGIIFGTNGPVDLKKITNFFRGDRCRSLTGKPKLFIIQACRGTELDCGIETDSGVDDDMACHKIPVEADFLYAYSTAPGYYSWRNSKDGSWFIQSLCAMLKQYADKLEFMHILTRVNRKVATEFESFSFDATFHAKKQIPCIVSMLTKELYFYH

[21] = biological target: T7, Sentrin-specific protease 6 (Homo sapiens, UniProt Q9GZR1); experiment: SAR Analysis of small molecule inhibitors of Sentrin-specific protease 6 (SENP6) using a Luminescent assay. [Related pubchem assays (depositor defined):AID2582, AID2599]; format: functional
T7 sequence (Q9GZR1 whole entry): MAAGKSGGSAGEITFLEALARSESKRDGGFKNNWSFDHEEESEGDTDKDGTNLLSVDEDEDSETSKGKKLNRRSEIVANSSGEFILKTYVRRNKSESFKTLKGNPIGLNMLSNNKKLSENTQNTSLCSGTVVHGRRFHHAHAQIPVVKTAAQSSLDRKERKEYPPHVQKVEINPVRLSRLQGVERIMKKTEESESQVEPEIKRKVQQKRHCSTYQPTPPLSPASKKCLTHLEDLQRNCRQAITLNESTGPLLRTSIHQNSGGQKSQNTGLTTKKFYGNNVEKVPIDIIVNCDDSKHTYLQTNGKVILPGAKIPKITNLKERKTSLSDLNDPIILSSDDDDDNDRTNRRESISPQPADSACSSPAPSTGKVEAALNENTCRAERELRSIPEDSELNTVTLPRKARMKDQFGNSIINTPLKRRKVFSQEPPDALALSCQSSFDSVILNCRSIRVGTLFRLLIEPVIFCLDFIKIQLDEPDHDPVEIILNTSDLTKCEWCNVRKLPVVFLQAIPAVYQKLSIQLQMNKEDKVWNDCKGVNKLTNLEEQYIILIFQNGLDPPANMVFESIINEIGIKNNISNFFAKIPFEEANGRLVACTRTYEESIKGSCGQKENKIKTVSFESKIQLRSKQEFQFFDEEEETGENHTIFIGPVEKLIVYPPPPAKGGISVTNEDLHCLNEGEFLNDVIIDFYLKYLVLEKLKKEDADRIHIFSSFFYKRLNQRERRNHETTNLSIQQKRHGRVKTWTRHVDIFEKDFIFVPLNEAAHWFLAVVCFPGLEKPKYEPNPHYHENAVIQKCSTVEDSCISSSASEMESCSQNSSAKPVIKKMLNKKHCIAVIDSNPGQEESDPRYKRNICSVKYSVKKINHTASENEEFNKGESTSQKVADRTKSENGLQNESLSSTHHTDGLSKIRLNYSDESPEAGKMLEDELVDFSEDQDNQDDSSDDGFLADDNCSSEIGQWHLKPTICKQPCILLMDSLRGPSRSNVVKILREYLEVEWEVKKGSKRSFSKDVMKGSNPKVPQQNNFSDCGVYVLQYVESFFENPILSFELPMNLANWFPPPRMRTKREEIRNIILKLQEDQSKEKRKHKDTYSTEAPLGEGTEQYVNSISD

[22] = biological target: T8, Sentrin-specific protease 7 (Homo sapiens, UniProt Q9BQF6); experiment: SENP7 protease inhibitors, SAR follow-up, biochemical, luminescence (AID 504497); format: functional
T8 sequence (Q9BQF6 whole entry): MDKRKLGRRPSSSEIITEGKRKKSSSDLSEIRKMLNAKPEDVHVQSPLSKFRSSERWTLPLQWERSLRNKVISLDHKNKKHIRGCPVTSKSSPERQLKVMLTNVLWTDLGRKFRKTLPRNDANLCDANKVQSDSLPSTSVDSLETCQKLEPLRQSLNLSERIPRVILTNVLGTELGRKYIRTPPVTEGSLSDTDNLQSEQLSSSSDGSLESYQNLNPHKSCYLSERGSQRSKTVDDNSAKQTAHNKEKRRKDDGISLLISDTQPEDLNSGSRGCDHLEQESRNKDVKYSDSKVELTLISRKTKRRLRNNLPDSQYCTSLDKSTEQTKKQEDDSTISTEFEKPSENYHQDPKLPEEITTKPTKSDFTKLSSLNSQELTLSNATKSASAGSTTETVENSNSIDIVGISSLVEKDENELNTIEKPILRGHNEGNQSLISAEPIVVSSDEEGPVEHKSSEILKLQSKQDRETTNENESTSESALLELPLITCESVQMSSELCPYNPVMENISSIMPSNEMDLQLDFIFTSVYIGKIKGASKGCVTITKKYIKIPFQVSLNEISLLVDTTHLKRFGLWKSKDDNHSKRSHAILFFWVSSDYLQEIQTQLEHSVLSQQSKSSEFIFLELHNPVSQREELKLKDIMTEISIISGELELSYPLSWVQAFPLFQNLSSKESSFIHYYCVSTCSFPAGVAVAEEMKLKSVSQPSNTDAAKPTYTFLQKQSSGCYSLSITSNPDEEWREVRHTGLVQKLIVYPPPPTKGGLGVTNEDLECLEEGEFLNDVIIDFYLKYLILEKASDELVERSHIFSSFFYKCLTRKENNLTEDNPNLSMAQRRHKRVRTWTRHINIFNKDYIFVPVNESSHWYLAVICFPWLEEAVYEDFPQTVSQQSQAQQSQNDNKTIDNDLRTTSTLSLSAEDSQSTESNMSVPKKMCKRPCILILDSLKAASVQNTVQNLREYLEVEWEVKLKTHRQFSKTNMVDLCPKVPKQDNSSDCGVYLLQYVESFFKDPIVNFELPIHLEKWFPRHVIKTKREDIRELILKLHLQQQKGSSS

Compound: CCCCCC1CCC(c2nnc(S)n2C)CC1 (centres undefined)
- EC50 [1]: > 150 µM (inactive)
- EC50 [2]: > 40 µM (inactive)
- EC50 [3]: > 38 µM (not active)
- EC50 [4]: 1.92 µM (active)
- IC50 [5]: > 40 µM (not active)
- EC50 [6]: > 60 µM (not active)

Compound: CC1CCCN(c2nc(-c3cccnc3)nc3scc(-c4ccccc4)c23)C1 (centres undefined)
- IC50 [7]: > 64.6 µM (inactive)
- IC50 [8]: > 64.6 µM (inactive)

Compound: O=C(c1ccccc1)c1cnc(-c2ccccc2)s1
- IC50 [9]: > 67.6 µM (inactive)
- IC50 [10]: > 67.6 µM (inactive)

Compound: COc1ccc(-c2nc3ncccn3c2Br)cc1
- CC50 [11]: 39.3 µM (active)
- IC50 [9]: > 67.6 µM (inactive)
- IC50 [10]: > 67.6 µM (inactive)

Compound: COc1ccccc1NC(=O)CCC(=O)OCC(=O)c1ccc(C)c([N+](=O)[O-])c1
- EC50 [2]: > 40 µM (inactive)
- IC50 [5]: 33.7 µM (not active)

Compound: Brc1ccc(-c2csc(N3CCOCC3)n2)cc1
- IC50 [9]: > 67.5 µM (inactive)
- IC50 [10]: > 67.5 µM (inactive)

Compound: COC(=O)c1ccc(C2c3[nH]c4ccccc4c3C[C@H]3C(=O)N(C4CCN(Cc5ccccc5)CC4)CC(=O)N23)cc1 (some centres undefined)
- IC50 [7]: > 64.6 µM (inactive)
- IC50 [8]: > 64.6 µM (inactive)

Compound: O=C(Cc1ccccc1)NCC(=O)OCC(=O)c1ccc(Cl)c([N+](=O)[O-])c1
- EC50 [2]: > 40 µM (inactive)
- IC50 [5]: 9.37 µM (active)

Compound: CN(C)CCCNC(=O)c1ccc(-c2nc(-c3ccc(Cl)cc3)cs2)cc1
- EC50 [1]: 44.4 µM (inconclusive)
- EC50 [12]: > 120 µM (not active)
- EC50 [2]: > 40 µM (inactive)
- EC50 [13]: 9.67 µM (inconclusive)
- EC50 [3]: 3.33 µM (active)
- EC50 [4]: 0.738 µM (active)
- CC50 [14]: 4.08 µM (active)
- IC50 [5]: 22.6 µM (not active)
- EC50 [15]: 2.41 µM (active)
- EC50 [6]: 10.2 µM (active)
- EC50 [16]: 2.25 µM (active)
- IC50 [17]: > 20 µM (inactive)
- EC50 [18]: > 9.91 µM (active)

Compound: NC(=O)CSc1nnc(-c2ccc(O)cc2)n1Cc1ccco1
- IC50 [9]: > 67.6 µM (inactive)
- IC50 [10]: > 67.6 µM (inactive)

Compound: Cc1cc(Cl)ccc1NC(=O)c1ccc2c(c1)OCO2
- IC50 [19]: > 99 µM (inactive)
- IC50 [20]: 28.1 µM (active)
- IC50 [21]: > 99 µM (inactive)
- IC50 [22]: 34.6 µM (active)

Compound: Oc1nnc(/C=C/c2ccc(F)cc2)o1
- IC50 [19]: > 99 µM (inactive)
- IC50 [20]: > 99 µM (inactive)
- IC50 [21]: > 99 µM (inactive)
- IC50 [22]: > 99 µM (inactive)
